Test results published in patent US20230295200A1 (REGENTS OF THE UNIVERSITY OF MICHIGAN, priority 2022, published 2023).

Assays:
STAT6 protein = target: T1, STAT6 protein (Homo sapiens, UniProt P42226); experiment: Fluorescence polarization (FP) binding assay, STAT6; details: FP competition, 5 nM fluorescein-labeled tracer, 200 nM protein, PBS pH7.4; read-out: Binding STAT6
T1 sequence (P42226 1-847): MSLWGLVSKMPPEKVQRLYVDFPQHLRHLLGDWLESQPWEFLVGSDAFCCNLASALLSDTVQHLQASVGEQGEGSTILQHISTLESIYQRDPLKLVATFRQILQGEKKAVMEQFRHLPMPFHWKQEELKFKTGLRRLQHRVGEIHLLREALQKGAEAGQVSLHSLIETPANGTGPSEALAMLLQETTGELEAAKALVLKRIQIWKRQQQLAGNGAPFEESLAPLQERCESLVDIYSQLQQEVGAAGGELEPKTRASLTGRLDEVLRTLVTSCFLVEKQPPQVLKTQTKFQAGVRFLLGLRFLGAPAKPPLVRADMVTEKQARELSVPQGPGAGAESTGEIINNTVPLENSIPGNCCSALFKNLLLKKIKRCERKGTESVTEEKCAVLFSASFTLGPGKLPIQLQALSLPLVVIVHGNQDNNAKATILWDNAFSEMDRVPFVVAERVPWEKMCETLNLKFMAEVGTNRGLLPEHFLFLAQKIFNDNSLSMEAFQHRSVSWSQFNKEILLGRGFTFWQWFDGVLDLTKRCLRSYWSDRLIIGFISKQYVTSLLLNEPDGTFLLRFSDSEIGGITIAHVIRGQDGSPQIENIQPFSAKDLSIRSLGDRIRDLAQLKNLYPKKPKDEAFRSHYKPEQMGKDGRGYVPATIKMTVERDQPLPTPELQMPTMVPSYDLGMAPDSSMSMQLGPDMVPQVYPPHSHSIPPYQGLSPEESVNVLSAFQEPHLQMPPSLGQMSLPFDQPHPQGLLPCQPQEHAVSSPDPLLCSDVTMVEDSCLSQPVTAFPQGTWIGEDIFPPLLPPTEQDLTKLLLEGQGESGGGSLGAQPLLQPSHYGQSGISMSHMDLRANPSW
Outline: (§1)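 Polarization of a 5 nM fluorescein tracer bound by 200 nM STAT protein, measured after 1 h room-temperature equilibration in buffered PBS pH 7.4 with DTT, gave inhibition constants via nonlinear curve fitting.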

STAT5A = target: T2, STAT5A (Homo sapiens, UniProt P42229); experiment: Fluorescence polarization (FP) binding assay, STAT5A; details: FP competition, 5 nM fluorescein-labeled tracer, 200 nM protein, PBS pH7.4
T2 sequence (P42229 1-794): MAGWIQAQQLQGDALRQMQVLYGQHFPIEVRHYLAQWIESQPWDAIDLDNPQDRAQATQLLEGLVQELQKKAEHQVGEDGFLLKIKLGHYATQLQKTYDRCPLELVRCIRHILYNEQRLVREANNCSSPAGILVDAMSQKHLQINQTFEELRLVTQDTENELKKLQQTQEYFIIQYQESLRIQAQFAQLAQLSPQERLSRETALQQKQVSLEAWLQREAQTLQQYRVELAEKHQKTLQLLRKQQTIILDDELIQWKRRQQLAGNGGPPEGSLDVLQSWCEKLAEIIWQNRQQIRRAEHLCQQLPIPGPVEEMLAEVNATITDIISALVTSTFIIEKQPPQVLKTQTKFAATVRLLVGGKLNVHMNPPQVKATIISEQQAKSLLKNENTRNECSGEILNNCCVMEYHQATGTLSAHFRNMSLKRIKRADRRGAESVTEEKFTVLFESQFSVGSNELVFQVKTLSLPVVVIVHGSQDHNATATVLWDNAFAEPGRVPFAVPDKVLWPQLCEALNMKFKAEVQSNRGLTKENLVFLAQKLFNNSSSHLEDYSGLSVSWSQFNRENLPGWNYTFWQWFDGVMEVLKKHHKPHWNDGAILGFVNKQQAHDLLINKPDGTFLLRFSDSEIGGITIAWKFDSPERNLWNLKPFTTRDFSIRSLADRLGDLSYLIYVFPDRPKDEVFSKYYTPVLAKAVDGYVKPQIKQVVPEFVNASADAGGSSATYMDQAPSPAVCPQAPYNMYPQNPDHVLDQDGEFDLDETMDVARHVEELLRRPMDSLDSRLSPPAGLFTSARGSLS
Outline: as §1

| Ki (STAT6 protein) [µM] | Ki (STAT5A) [µM] | SMILES |
| --- | --- | --- |
| 0.1 to 1 | 1 to 10 | CNC(=O)CCN(C(=O)[C@@H]1CCCN1C(=O)[C@@H](NC(=O)c1cc2cc(C(F)(F)P(=O)(O)O)ccc2s1)C(C)(C)C)c1ccc(Br)cc1 [Compound 45, ((2-(((S)-1-((S)-2-((4-bromophenyl)(3-(methylamino)-3-oxopropyl)carbamoyl)pyrrolidin-1-yl)-3,3-dimethyl-1-oxobutan-2-yl)carbamoyl)benzo[b]thiophen-5-yl)difluoromethyl)phosphonic acid] |
| 0.1 to 1 | 0.1 to 1 | CC(C)(C)[C@H](NC(=O)c1cc2cc(C(F)(F)P(=O)(O)O)ccc2s1)C(=O)N1CCC[C@H]1C(=O)N(CCC(=O)O)c1ccc(Br)cc1 [Compound 46, 3-((S)-N-(4-bromophenyl)-1-((S)-2-(5-(difluoro(phosphono)methyl)benzo[b]thiophene-2-carboxamido)-3,3-dimethylbutanoyl)pyrrolidine-2-carboxamido)propanoic acid] |
| 1 to 10 | > 10 | CC(C)(C)[C@H](NC(=O)c1cc2cc(C(F)(F)P(=O)(O)O)ccc2s1)C(=O)N1CCC[C@H]1C(=O)N1CCCC12CCCC2 [Compound 58, ((2-(((S)-1-((S)-2-(1-azaspiro[4.4]nonane-1-carbonyl)pyrrolidin-1-yl)-3,3-dimethyl-1-oxobutan-2-yl)carbamoyl)benzo[b]thiophen-5-yl)difluoromethyl)phosphonic acid] |
| 1 to 10 | > 10 | CC(C)(C)[C@H](NC(=O)c1cc2cc(C(F)(F)P(=O)(O)O)ccc2s1)C(=O)N1CCC[C@H]1C(=O)N1CCC2(CCCC2)C1 [Compound 59, ((2-(((S)-1-((S)-2-(2-azaspiro[4.4]nonane-2-carbonyl)pyrrolidin-1-yl)-3,3-dimethyl-1-oxobutan-2-yl)carbamoyl)benzo[b]thiophen-5-yl)difluoromethyl)phosphonic acid] |
| 1 to 10 | > 10 | CC(C)(C)[C@H](NC(=O)c1cc2cc(C(F)(F)P(=O)(O)O)ccc2s1)C(=O)N1CCC[C@H]1C(=O)N1CCCC12CCCCC2 [Compound 60, ((2-(((S)-1-((S)-2-(1-azaspiro[4.5]decane-1-carbonyl)pyrrolidin-1-yl)-3,3-dimethyl-1-oxobutan-2-yl)carbamoyl)benzo[b]thiophen-5-yl)difluoromethyl)phosphonic acid] |
| 1 to 10 | > 10 | CC(C)(C)[C@H](NC(=O)c1cc2cc(C(F)(F)P(=O)(O)O)ccc2s1)C(=O)N1CCC[C@H]1C(=O)N1CCC2(CCCCC2)C1 [Compound 61, ((2-(((S)-1-((S)-2-(2-azaspiro[4.5]decane-2-carbonyl)pyrrolidin-1-yl)-3,3-dimethyl-1-oxobutan-2-yl)carbamoyl)benzo[b]thiophen-5-yl)difluoromethyl)phosphonic acid] |
| 1 to 10 | > 10 | CC(C)(C)[C@H](NC(=O)c1cc2cc(C(F)(F)P(=O)(O)O)ccc2s1)C(=O)N1CCC[C@H]1C(=O)N1CCC2(CCCCCC2)C1 [Compound 62, ((2-(((S)-1-((S)-2-(2-azaspiro[4.6]undecane-2-carbonyl)pyrrolidin-1-yl)-3,3-dimethyl-1-oxobutan-2-yl)carbamoyl)benzo[b]thiophen-5-yl)difluoromethyl)phosphonic acid] |
| 1 to 10 | > 10 | CC(C)(C)[C@H](NC(=O)c1cc2cc(C(F)(F)P(=O)(O)O)ccc2s1)C(=O)N1CCC[C@H]1C(=O)N1CCc2ccc(Cl)cc2C1 [Compound 68, ((2-(((S)-1-((S)-2-(7-chloro-1,2,3,4-tetrahydroisoquinoline-2-carbonyl)pyrrolidin-1-yl)-3,3-dimethyl-1-oxobutan-2-yl)carbamoyl)benzo[b]thiophen-5-yl)difluoromethyl)phosphonic acid] |
| 1 to 10 | > 10 | CC(C)(C)[C@H](NC(=O)c1cc2cc(C(F)(F)P(=O)(O)O)ccc2s1)C(=O)N1CCC[C@H]1C(=O)NC1(c2ccccc2)CC1 [Compound 71, ((2-(((S)-3,3-dimethyl-1-oxo-1-((S)-2-((1-phenylcyclopropyl)carbamoyl)pyrrolidin-1-yl)butan-2-yl)carbamoyl)benzo[b]thiophen-5-yl)difluoromethyl)phosphonic acid] |
